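Values below derive from 48-hour exposures of cells grown in 96-well plates, with endpoints linearly interpolated between the two concentrations bracketing the appropriate inhibition level. The concentration for 50% growth inhibition is given as GI50. TGI marks complete inhibition of growth.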

The test deals with MDA-MB-468 breast. Description: growth of human tumour cells (NCI), 48 h.
Take `CNC(=O)c1cc(Oc2cccc3nc(NC(=O)Nc4ccc(F)cc4F)ccc23)ccn1`: the GI50 was 1.83 µM and the TGI was above 50 µM.
As for `O=C1Nc2c(ccc(Cl)c2Cl)/C1=C\c1cc(C(F)(F)F)cc(C(F)(F)F)c1`, the GI50 was 1.51 µM and the TGI was found to be 5.6 µM.
The like results for `Cc1nc2cc(Nc3nc(Nc4ccc(F)cc4)nc(N4CCCC4)n3)ccc2n1Cc1ccccc1` were, in that order, 1.61 µM and 3.48 µM.
On to `CCOC(=O)Nc1cc(-c2ccc(C)c(NS(C)(=O)=O)c2)nn2c(C)nnc12`, for which the GI50 is 0.557 µM and the TGI stood at 4.21 µM.
Regarding `COC1/C=C/OC2(C)Oc3c(C)c(O)c4c(O)c(c(C=NOC(c5ccccc5)c5ccccc5)c(O)c4c3C2=O)NC(=O)/C(C)=C/C=C/C(C)C(O)C(C)C(O)C(C)C(OC(C)=O)C1C` (stereo unspecified), the GI50 is 1.05 µM and the TGI came out at 2.78 µM.
Take `Nc1nc(Cl)nc2c1ncn2C1OC(CO)C(O)C1O` (stereo unspecified): the GI50 is above 100 µM and the TGI is above 100 µM.
Regarding `COc1ccc2c(c1)C(=O)c1c-2c(OCCN2CCCCC2)nc2ccc(OC)cc12`, the GI50 is 0.392 µM and the TGI is 2.49 µM.
`O=C(Nc1nc(-c2ccccc2Cl)cs1)c1cc(-c2ccc(Cl)cc2)nc2ccc(Cl)cc12`: the GI50 is 5.6 µM and the TGI amounted to 79.6 µM.
Consider `COc1ccc(/C=C/C(=O)c2ccccc2)cc1OC`, for which the GI50 is 5.25 µM and the TGI is 18.6 µM.
On the same counts, the results for `Cc1ccc(S(=O)(=O)NCCCNc2nc(Nc3ccc(N4CCN(C)CC4)cc3)nc3ccsc23)cc1` are 7.43 µM and 20.6 µM.
With `COc1cc(OC)c(/C=C/C(=O)c2c(O)cc(OC)c(C3CCN(C)CC3)c2OC)c(OC)c1`, the GI50 is 1.54 µM and the TGI was 3.03 µM.
For `Clc1ccc(Nc2ncnc3c2sc2ncccc23)c(Cl)c1`, the GI50 was 0.0548 µM and the TGI is 73.8 µM.
On to `CCN(CC)CC(O)c1cc(-c2ccc(Cl)cc2)nc2cc(Cl)ccc12` (stereo unspecified), for which the GI50 was 1.92 µM and the TGI came to 3.53 µM.
For the compound `COc1ccc(Nc2ncccc2C(=O)NCc2cn(Cc3cccc(Oc4ccccc4)c3)nn2)c(OC)c1`, the GI50 is 0.77 µM.
Regarding `Oc1[nH]c2ccccc2c1/C=c1/ccc2c(c1)N=C(c1cc(F)cc(F)c1)N=2`, the GI50 was 2.62 µM and the TGI worked out at 8.64 µM.
As to `COC1=CC(c2ccc[nH]2)=N/C1=C\c1[nH]c(C)c(C)c1CCC(=O)OCc1ccccc1`, the GI50 is 1.51 µM and the TGI turned out to be 5.31 µM.
Consider `O=C(Nc1ccc(Cl)cc1)c1cc2ccccc2cc1OP(=O)(O)O`, for which the GI50 was 4.28 µM and the TGI is 29.3 µM.
The like results for `COC(=O)C[Se]C(=O)Cc1c(C)n(C(=O)c2ccc(Cl)cc2)c2ccc(OC)cc12` were, in that order, 1.47 µM and 4 µM.
On the same counts, the results for `O=[N+]([O-])c1cccc([I+]c2ccccc2)c1` are 2.1 µM and 17.4 µM.
As to `COc1cccc(/C=C2\CCc3ccccc3C2=O)c1`, the GI50 is 12.6 µM and the TGI came out at 29.3 µM.
The like results for `O=C(NC(Cc1ccccc1)C(=O)CCl)OCc1ccccc1` (stereo unspecified) were, in that order, 3.69 µM and 15.4 µM.
Consider `O=C1c2ccccc2-c2ccccc2C1(Cl)Cl`, for which the GI50 is 1.74 µM and the TGI was 3.3 µM.
The like results for `Cn1cc(-c2ccc3nnc(C(F)(F)c4ccc5ncccc5c4)n3n2)cn1` were, in that order, 22.5 µM and above 100 µM.
For `CC/C(=C(/CC)c1ccc(O)cc1)c1ccc(O)cc1`, the GI50 was 2.71 µM and the TGI worked out at 15.1 µM.
The like results for `CS(=O)(=O)c1ccc(-c2cnc(NCc3ccco3)n3cnnc23)cc1` were, in that order, 27 µM and above 100 µM.
On the same counts, the results for `Cc1ccnc(NC(c2ccccc2)c2ccc3cccnc3c2O)c1` (stereo unspecified) are 3.25 µM and 14.3 µM.
The like results for `C=C(C)[C@@H]1CC[C@]2(C(=O)N3CCN(C)CC3)CC[C@]3(C)[C@H](CC[C@@H]4[C@@]5(C)CC[C@H](O)C(C)(C)[C@@H]5CC[C@]43C)[C@@H]12` were, in that order, 1.82 µM and 3.63 µM.
As for `CNC(=O)c1cc(Oc2ccc3nc(NC(=O)Nc4cc(C(F)(F)F)cc(C(F)(F)F)c4)sc3c2)ccn1`, the GI50 was 0.399 µM and the TGI is 1.75 µM.
Turning to `CCN(CC)CCNC(=O)C(Cl)=C1C(Cl)=C(Cl)C(Cl)=C1Cl`, the GI50 was 2.08 µM and the TGI came to 7.63 µM.
Turning to `N/C(=N\C(N)=N\c1nc2ccccc2s1)c1ccnc(Br)c1`, the GI50 was 17.5 µM and the TGI is above 100 µM.
For the compound `Cc1cc2nc3c4cc([N+](=O)[O-])ccc4n(CCN(C)C)c3nc2cc1C`, the GI50 was 0.374 µM and the TGI is 1.38 µM.
